Test results as given in patent publication US12624023B2, “Sulfonylurea derivatives and uses thereof” (NodThera Limited, priority 2019, dated 2026).

Legend:
[1] = test system: IL-1β release upon NLRP3 activation in peripheral blood mononuclear cells (PBMC); experiment: PBMC IC50 determination assay (IL-1β release, LPS priming + ATP stimulation, HTRF); type: cell-based; conditions: PBMC from buffy coats; LPS 1 μg/ml 3 h, compound 30 min, ATP 5 mM 1 h; IL-1β by HTRF
Procedure, shortened: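 Buffy-coat PBMC were primed with LPS (1 μg/ml) for 3 h, given compound for 30 min, then stimulated with 5 mM ATP for 1 h. IL-1β released into the medium was quantified by HTRF, reading 655 and 620 nm.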

[2] = test system: IL-1β release upon NLRP3 activation in human whole blood; experiment: Whole blood (WB) assay (IL-1β release, LPS priming + ATP stimulation, HTRF); type: cell-based; conditions: heparin, diluted 9:5 with media, LPS 1 μg/ml 3 h, compound 30 min, ATP 5 mM 1 h, IL-1β by HTRF
Procedure, shortened: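 Heparinised human whole blood, diluted 9:5 in medium, was primed with LPS (1 μg/ml final) for 3 h. Compound was then added for 30 min, followed by ATP (5 mM final) for 1 h. Secreted IL-1β was measured in the media by HTRF (655/620 nm).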

| SMILES | IC50 [1] | IC50 [2] |
| --- | --- | --- |
| Cc1sc(C(F)(F)F)cc1NC(=O)NS(=O)(=O)N(c1cnn(C)c1)C1CCCN(C)C1 (stereo not drawn) [Compound 117, 1-[(1-Methyl-1H-pyrazol-4-yl)(1-methylpiperidin-3-yl)sulfamoyl]-3-[2-methyl-5-(trifluoromethyl)thiophen-3-yl]urea] | 0.1 to 0.5 µM | < 1 µM |
| Cc1sc2c(c1NC(=O)NS(=O)(=O)N(c1cnn(C3CC3)c1)C1CCCN(C)C1)CCC2 (stereo not drawn) [Compound 118, 1-[(1-Cyclopropyl-1H-pyrazol-4-yl)(1-methylpiperidin-3-yl)sulfamoyl]-3-{2-methyl-4H,5H,6H-cyclopenta[b]thiophen-3-yl}urea] | < 0.1 µM | < 1 µM |
| Cc1sc2c(c1NC(=O)NS(=O)(=O)N(c1cnn(C)c1F)C1CCCN(C)C1)CCC2 (stereo not drawn) [Compound 119, 1-[(5-Fluoro-1-methyl-1H-pyrazol-4-yl)(1-methylpiperidin-3-yl)sulfamoyl]-3-{2-methyl-4H,5H,6H-cyclopenta[b]thiophen-3-yl}urea] | < 0.1 µM | < 1 µM |
| Cc1sc2c(c1NC(=O)NS(=O)(=O)N(c1cnn(C)c1F)C1CCN(C)CC1)CCC2 [Compound 120, 1-[(5-Fluoro-1-methyl-1H-pyrazol-4-yl)(1-methylpiperidin-4-yl)sulfamoyl]-3-{2-methyl-4H,5H,6H-cyclopenta[b]thiophen-3-yl}urea] | < 0.1 µM | 1 to 3 µM |
| CC(C)c1cc(NC(=O)NS(=O)(=O)N(c2cnn(C)c2)C2CCCN(C)C2)c(C(F)(F)F)s1 (stereo not drawn) [Compound 121, 1-[(1-Methyl-1H-pyrazol-4-yl)(1-methylpiperidin-3-yl)sulfamoyl]-3-[5-(propan-2-yl)-2-(trifluoromethyl)thiophen-3-yl]urea] | 0.1 to 0.5 µM | 3 to 10 µM |
| CN1CCCC(N(c2cnn(C)c2)S(=O)(=O)NC(=O)Nc2c(C(C)(C)C)sc3c2CCC3)C1 (stereo not drawn) [Compound 122, 3-{2-Tert-butyl-4H,5H,6H-cyclopenta[b]thiophen-3-yl}-1-[(1-methyl-1H-pyrazol-4-yl)(1-methylpiperidin-3-yl)sulfamoyl]urea] | 0.5 to 1 µM | 10 to 20 µM |
| CC(C)c1sc(Cl)cc1NC(=O)NS(=O)(=O)N(c1cnn(C)c1)C1CCN(C)CC1 [Compound 123, 3-[5-Chloro-2-(propan-2-yl)thiophen-3-yl]-1-[(1-methyl-1H-pyrazol-4-yl)(1-methylpiperidin-4-yl)sulfamoyl]urea] | < 0.1 µM | 1 to 3 µM |
| Cc1nsc(C(C)C)c1NC(=O)NS(=O)(=O)N(c1cnn(C)c1)C1CCCN(C)C1 (stereo not drawn) [Compound 124, 1-[(1-Methyl-1H-pyrazol-4-yl)(1-methylpiperidin-3-yl)sulfamoyl]-3-[3-methyl-5-(propan-2-yl)-1,2-thiazol-4-yl]urea] | > 10 µM | > 20 µM |
| Cc1sc2c(c1NC(=O)NS(=O)(=O)N(c1cnn(C)c1)[C@H]1CCN(C)C1)CCC2 [Compound 125, 1-[(1-Methyl-1H-pyrazol-4-yl)[(3S)-1-methylpyrrolidin-3-yl]sulfamoyl]-3-{2-methyl-4H,5H,6H-cyclopenta[b]thiophen-3-yl}urea] | < 0.1 µM | < 1 µM |
| Cc1sc2c(c1NC(=O)NS(=O)(=O)N(c1cnn(C)c1)[C@@H]1CCN(C)C1)CCC2 [Compound 126, 1-[(1-Methyl-1H-pyrazol-4-yl)[(3R)-1-methylpyrrolidin-3-yl]sulfamoyl]-3-{2-methyl-4H,5H,6H-cyclopenta[b]thiophen-3-yl}urea] | < 0.1 µM | < 1 µM |
| Cc1cc(NC(=O)NS(=O)(=O)N(c2cnn(C)c2)[C@H]2CCN(C)C2)c(C(C)C)s1 [Compound 127, 1-[(1-Methyl-1H-pyrazol-4-yl)[(3S)-1-methylpyrrolidin-3-yl]sulfamoyl]-3-[5-methyl-2-(propan-2-yl)thiophen-3-yl]urea] | < 0.1 µM | < 1 µM |
| CC(C)c1sc(Cl)cc1NC(=O)NS(=O)(=O)N(c1cnn(C)c1)[C@H]1CCN(C)C1 [Compound 128, 3-[5-Chloro-2-(propan-2-yl)thiophen-3-yl]-1-[(1-methyl-1H-pyrazol-4-yl)-[(3S)-1-methylpyrrolidin-3-yl]sulfamoyl]urea] | < 0.1 µM | < 1 µM |
| CC(C)c1sc(Cl)cc1NC(=O)NS(=O)(=O)N(c1cnn(C)c1)[C@@H]1CCN(C)C1 [Compound 129, 3-[5-Chloro-2-(propan-2-yl)thiophen-3-yl]-1-[(1-methyl-1H-pyrazol-4-yl)-[(3R)-1-methylpyrrolidin-3-yl]sulfamoyl]urea] | < 0.1 µM | < 1 µM |
| Cc1cc(NC(=O)NS(=O)(=O)N(c2cnn(C)c2)[C@@H]2CCN(C)C2)c(C(C)C)s1 [Compound 130, 1-[(1-Methyl-1H-pyrazol-4-yl)[(3R)-1-methylpyrrolidin-3-yl]sulfamoyl]-3-[5-methyl-2-(propan-2-yl)thiophen-3-yl]urea] | < 0.1 µM | < 1 µM |
| CC(C)c1sc(C#N)cc1NC(=O)NS(=O)(=O)N(c1cnn(C)c1)C1CCCN(C)C1 (stereo not drawn) [Compound 131, 3-[5-Cyano-2-(propan-2-yl)thiophen-3-yl]-1-[(1-methyl-1H-pyrazol-4-yl)(1-methylpiperidin-3-yl)sulfamoyl]urea] | 0.5 to 1 µM | 3 to 10 µM |
